Data published in PubChem BioAssay AID330 (DTP/NCI, 2004).
Values joined by “and” are separate entries in the source; they are usually repeats but may differ in a detail not shown here. Equal values may be shown once. Toxic doses and inconclusive results are not listed. How the source made its calls: active means survival T/C of 150% or more; inactive means T/C below 125% in these data.

Tested on: P388 leukemia ip, CD2F1 mice, survival T/C
Assay: NCI In Vivo Anticancer Drug Screen. Data for tumor model P388 Leukemia (intraperitoneal) in CD2F1 (CDF1) mice
Conditions: endpoint: median survival time, higher = longer survival
Summary of the method: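 Mice carrying the transplanted tumor received test compound or vehicle. Survival was recorded in each group, and the value is the treated-group measurement divided by that of the vehicle-treated control group.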

Measured: T/C

COc1cccc2c1C(=O)c1c(O)c3c(c(O)c1C2=O)CC(O)(C(=O)CO)CC3OC1CC(N)C(O)C(C)O1 (configuration not stated)
inactive: dose: 0.03 mg/kg/injection, schedule: Q04DX003 (ip), vehicle: other 104 % of control | dose: 0.05 mg/kg/injection, schedule: Q04DX003 (ip), vehicle: other 104 % of control | dose: 0.05 mg/kg/injection, schedule: Q04DX003 (ip), vehicle: saline 110 % of control | dose: 0.08 mg/kg/injection, schedule: Q04DX003 (ip), vehicle: other 115 % of control | dose: 0.1 mg/kg/injection, schedule: Q04DX003 (ip), vehicle: other 98 % of control | dose: 0.12 mg/kg/injection, schedule: Q04DX003 (ip), vehicle: other 122 % of control | dose: 0.3 mg/kg/injection, schedule: Q04DX003 (ip), vehicle: other 112 % of control | dose: 0.5 mg/kg/injection, schedule: Q04DX003 (ip), vehicle: other 100 % of control | dose: 1.0 mg/kg/injection, schedule: Q04DX003 (ip), vehicle: other 100 % of control | dose: 1.0 mg/kg/injection, schedule: Q04DX003 (ip), vehicle: saline 110 % of control and 106 % of control | dose: 1.13 mg/kg/injection, schedule: Q04DX003 (ip), vehicle: water 120 % of control | dose: 2.0 mg/kg/injection, schedule: Q04DX003 (ip), vehicle: other 97 % of control | dose: 2.0 mg/kg/injection, schedule: Q04DX003 (ip), vehicle: saline 113 % of control and 116 % of control | dose: 2.25 mg/kg/injection, schedule: Q04DX003 (ip), vehicle: water 121 % of control | dose: 2.9 mg/kg/injection, schedule: Q01DX009 (ip), vehicle: saline 104 % of control | dose: 3.0 mg/kg/injection, schedule: Q04DX003 (ip), vehicle: water 114 % of control | dose: 3.13 mg/kg/injection, schedule: Q04DX003 (ip), vehicle: other 118 % of control | dose: 4.0 mg/kg/injection, schedule: Q04DX003 (ip), vehicle: other 115 % of control | dose: 4.0 mg/kg/injection, schedule: Q04DX003 (ip), vehicle: saline 119 % of control | dose: 5.8 mg/kg/injection, schedule: Q01DX009 (ip), vehicle: saline 124 % of control | dose: 6.25 mg/kg/injection, schedule: Q04DX003 (ip), vehicle: other 120 % of control | dose: 8.0 mg/kg/injection, schedule: Q04DX003 (ip), vehicle: saline 109 % of control | dose: 9.0 mg/kg/injection, schedule: Q04DX003 (ip), vehicle: water 121 % of control | dose: 10.0 mg/kg/injection, schedule: Q04DX003 (ip), vehicle: water 112 % of control | dose: 12.0 mg/kg/injection, schedule: Q04DX003 (ip), vehicle: water 116 % of control | dose: 16.0 mg/kg/injection, schedule: Q04DX003 (ip), vehicle: saline 119 % of control | dose: 21.3 mg/kg/injection, schedule: Q04DX003 (ip), vehicle: saline 86 % of control | dose: 22.5 mg/kg/injection, schedule: Q04DX003 (ip), vehicle: water 109 % of control and 115 % of control | dose: 25.0 mg/kg/injection, schedule: Q04DX003 (ip), vehicle: saline 98 % of control | dose: 44.0 mg/kg/injection, schedule: Q04DX003 (ip), vehicle: water 110 % of control | dose: 45.0 mg/kg/injection, schedule: Q04DX003 (ip), vehicle: water 124 % of control | dose: 48.0 mg/kg/injection, schedule: Q04DX003 (ip), vehicle: other 87 % of control | dose: 50.0 mg/kg/injection, schedule: Q01DX009 (ip), vehicle: water 117 % of control | dose: 72.0 mg/kg/injection, schedule: Q04DX003 (ip), vehicle: other 93 % of control | dose: 80.0 mg/kg/injection, schedule: Q04DX003 (ip), vehicle: water 118 % of control | dose: 108.0 mg/kg/injection, schedule: Q04DX003 (ip), vehicle: other 88 % of control | dose: 160.0 mg/kg/injection, schedule: Q04DX003 (ip), vehicle: water 95 % of control | dose: 267.0 mg/kg/injection, schedule: Q04DX003 (ip), vehicle: water 109 % of control | dose: 360.0 mg/kg/injection, schedule: Q04DX003 (ip), vehicle: water 97 % of control | dose: 400.0 mg/kg/injection, schedule: Q04DX003 (ip), vehicle: water 99 % of control | dose: 512.0 mg/kg/injection, schedule: Q04DX003 (ip), vehicle: saline 90 % of control
123 % of control and 217 % of control: dose: 23.4 mg/kg/injection, schedule: Q01DX009 (ip), vehicle: saline
active: dose: 0.38 mg/kg/injection, schedule: Q01DX009 (ip), vehicle: water 150 % of control | dose: 0.6 mg/kg/injection, schedule: Q04DX003 (ip), vehicle: saline 154 % of control | dose: 0.75 mg/kg/injection, schedule: Q01DX009 (ip), vehicle: water 159 % of control | dose: 1.3 mg/kg/injection, schedule: Q04DX003 (ip), vehicle: other 152 % of control | dose: 1.3 mg/kg/injection, schedule: Q04DX003 (ip), vehicle: saline 156 % of control | dose: 1.5 mg/kg/injection, schedule: Q01DX009 (ip), vehicle: water 165 % of control | dose: 1.56 mg/kg/injection, schedule: Q04DX003 (ip), vehicle: saline 163 % of control | dose: 1.9 mg/kg/injection, schedule: Q04DX003 (ip), vehicle: other 153 % of control | dose: 1.9 mg/kg/injection, schedule: Q04DX003 (ip), vehicle: saline 156 % of control | dose: 2.8 mg/kg/injection, schedule: Q04DX003 (ip), vehicle: other 169 % of control | dose: 2.8 mg/kg/injection, schedule: Q04DX003 (ip), vehicle: saline 182 % of control | dose: 3.0 mg/kg/injection, schedule: Q01DX009 (ip), vehicle: water 158 % of control | dose: 3.12 mg/kg/injection, schedule: Q04DX003 (ip), vehicle: saline 170 % of control | dose: 3.13 mg/kg/injection, schedule: Q01DX009 (ip), vehicle: water 163 % of control | dose: 4.2 mg/kg/injection, schedule: Q04DX003 (ip), vehicle: other 179 % of control | dose: 4.2 mg/kg/injection, schedule: Q04DX003 (ip), vehicle: saline 180 % of control | dose: 6.0 mg/kg/injection, schedule: Q01DX009 (ip), vehicle: water 183 % of control | dose: 6.25 mg/kg/injection, schedule: Q01DX009 (ip), vehicle: water 200 % of control | dose: 6.25 mg/kg/injection, schedule: Q04DX003 (ip), vehicle: saline 170 % of control | dose: 6.3 mg/kg/injection, schedule: Q04DX003 (ip), vehicle: other 179 % of control | dose: 6.3 mg/kg/injection, schedule: Q04DX003 (ip), vehicle: saline 168 % of control | dose: 7.5 mg/kg/injection, schedule: Q04DX003 (ip), vehicle: clinical formulation 161 % of control | dose: 9.5 mg/kg/injection, schedule: Q04DX003 (ip), vehicle: other 179 % of control | dose: 9.5 mg/kg/injection, schedule: Q04DX003 (ip), vehicle: saline 208 % of control | dose: 12.0 mg/kg/injection, schedule: Q01DX009 (ip), vehicle: water 204 % of control | dose: 12.5 mg/kg/injection, schedule: Q01DX009 (ip), vehicle: water 229 % of control | dose: 14.2 mg/kg/injection, schedule: Q04DX003 (ip), vehicle: other 198 % of control | dose: 14.2 mg/kg/injection, schedule: Q04DX003 (ip), vehicle: saline 193 % of control | dose: 15.0 mg/kg/injection, schedule: Q04DX003 (ip), vehicle: clinical formulation 152 % of control | dose: 21.3 mg/kg/injection, schedule: Q04DX003 (ip), vehicle: other 207 % of control | dose: 25.0 mg/kg/injection, schedule: Q01DX009 (ip), vehicle: water 220 % of control | dose: 32.0 mg/kg/injection, schedule: Q04DX003 (ip), vehicle: other 160 % of control | dose: 32.0 mg/kg/injection, schedule: Q04DX003 (ip), vehicle: saline 172 % of control | dose: 36.0 mg/kg/injection, schedule: Q04DX003 (ip), vehicle: water 163 % of control | dose: 48.0 mg/kg/injection, schedule: Q04DX003 (ip), vehicle: water 175 % of control and 294 % of control | dose: 50.0 mg/kg/injection, schedule: Q04DX003 (ip), vehicle: other 161 % of control | dose: 64.0 mg/kg/injection, schedule: Q04DX003 (ip), vehicle: saline 167 % of control and 153 % of control | dose: 72.0 mg/kg/injection, schedule: Q04DX003 (ip), vehicle: water 196 % of control | dose: 90.0 mg/kg/injection, schedule: Q04DX003 (ip), vehicle: water 159 % of control and 174 % of control | dose: 108.0 mg/kg/injection, schedule: Q04DX003 (ip), vehicle: water 163 % of control | dose: 128.0 mg/kg/injection, schedule: Q04DX003 (ip), vehicle: other 182 % of control | dose: 128.0 mg/kg/injection, schedule: Q04DX003 (ip), vehicle: saline 204 % of control and 184 % of control | dose: 180.0 mg/kg/injection, schedule: Q04DX003 (ip), vehicle: water 168 % of control | dose: 256.0 mg/kg/injection, schedule: Q04DX003 (ip), vehicle: other 175 % of control
110 % of control and 213 % of control: dose: 256.0 mg/kg/injection, schedule: Q04DX003 (ip), vehicle: saline
